One may read the Ki as the equilibrium dissociation constant of an inhibitor or competing ligand from its target. Lower therefore signals tighter binding. A word on the IC50: it is the concentration at which inhibition is half-maximal. Lower therefore signals inhibition by little substance.

The values that follow come from PMC6976569, “Structural basis of subtype-selective competitive antagonism for GluN2C/2D-containing NMDA receptors” (Nature Communications, 2020).

Molecules are shown by their SMILES. Several values for one entry are separate records, joined by “and”; a condition that tells them apart may be missing. Identical values can stand only once.

Common to all, as to type: cell-based
One assay has as its target T1, GluN1-4a/GluN2C NMDARs (Rattus norvegicus, UniProt P35439+Q00961).
T1 construct: expressed in transfected cells; host or cells: Xenopus laevis oocytes injected with cRNA
As to the kind of experiment: TEVC electrophysiology on Xenopus laevis oocytes expressing GluN1-4a/GluN2C. The note with it: Ki, 100 μM glycine, 1 or 3 μM L-glutamate. The source says: (§1) The chemical definition of UBP791 used in this study is a cis-racemic mixture of (2S,3R)- and (2R,3S)-isomers.
(§2) Plasmids (pSP or pCI_NEO) harboring rat GluN1 or GluN2 full-length subunits were linearized by restriction digestion and transcribed according to the manufacturer’s instructions (mMESSAGE mMachine SP6 or T7 kit, ThermoFisher Scientific). Recombinant rat GluN1-4a and GluN2 were expressed by co-injecting cRNA at a 1:2 (w/w) ratio into defolliculated X. laevis oocytes (amounts varied from 0.05–25 ng per oocyte). Two-electrode voltage-clamp recordings were performed 1–3 days after injection using agarose-tipped microelectrodes (0.4–1.2 MΩ) filled with 3 M KCl at a holding potential of −60 mV. The bath solution contained 5 mM HEPES, 100 mM NaCl, 0.3 mM BaCl2, 10 mM Tricine, at pH 7.4 (adjusted with KOH). […] For the statistical evaluation, we implemented pairwise F-tests to test variances, and then performed the Student t test with equal or unequal variances as determined previously, and accounted for multiple testing with the Bonferroni correction.

For the next assay, the target named is GluA1 (Homo sapiens, UniProt P42261). Briefly: Glutamate-stimulated Ca2+-influx fluorescence assay in HEK293 cells, GluA1. The following applies: for IC50: HEK293 cells, glutamate-stimulated Ca2+-influx. As for the experimental part: HEK293 cell lines stably expressing homomeric glutamate receptors (GluA1, GluK1 and GluK2) were obtained from Eli Lilly and grown in DMEM (ThermoFisher) supplemented with 10% v/v fetal bovine serum (Sigma), 2 mM Glutamax™ (Gibco), 100 U/mL penicillin, 100 µg streptomycin and 250 ng amphotericin B (Sigma) in 5% CO2 at 37 °C. Cells were passaged using TrypLE (Gibco) as required before confluency and periodically treated with selection antibiotics (GluK1, GluK2 hygromycin B, 200 µg/mL; GluA1 geneticin™, 200 µg/mL).
Chain of GluA1 (P42261 19-906): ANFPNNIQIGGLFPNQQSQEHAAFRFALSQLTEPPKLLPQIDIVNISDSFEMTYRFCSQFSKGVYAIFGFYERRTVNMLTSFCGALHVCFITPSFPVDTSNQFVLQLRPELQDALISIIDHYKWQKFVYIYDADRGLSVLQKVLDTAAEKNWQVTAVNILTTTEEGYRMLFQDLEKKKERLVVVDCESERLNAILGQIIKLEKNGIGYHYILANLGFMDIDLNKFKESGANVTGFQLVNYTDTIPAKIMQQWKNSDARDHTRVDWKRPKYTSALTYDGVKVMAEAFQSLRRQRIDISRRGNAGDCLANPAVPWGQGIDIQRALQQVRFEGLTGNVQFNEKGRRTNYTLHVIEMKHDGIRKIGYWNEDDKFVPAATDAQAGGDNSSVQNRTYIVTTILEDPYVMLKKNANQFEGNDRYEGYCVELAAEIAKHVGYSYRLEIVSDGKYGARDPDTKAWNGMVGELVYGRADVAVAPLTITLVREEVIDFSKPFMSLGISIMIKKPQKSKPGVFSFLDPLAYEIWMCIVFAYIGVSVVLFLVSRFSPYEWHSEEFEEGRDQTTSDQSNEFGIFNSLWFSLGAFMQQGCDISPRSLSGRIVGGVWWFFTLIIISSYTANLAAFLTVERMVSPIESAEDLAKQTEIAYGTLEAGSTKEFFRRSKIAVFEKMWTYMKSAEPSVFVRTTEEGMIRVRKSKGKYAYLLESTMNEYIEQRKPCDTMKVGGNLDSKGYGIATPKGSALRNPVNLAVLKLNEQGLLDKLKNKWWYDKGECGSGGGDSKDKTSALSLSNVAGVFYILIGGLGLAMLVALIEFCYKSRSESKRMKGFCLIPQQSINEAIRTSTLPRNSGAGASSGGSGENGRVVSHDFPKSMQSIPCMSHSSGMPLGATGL
(§3) Calcium influx fluorescence assay
100k cells/well were seeded into a 96-well plate precoated with poly-L-lysine and incubated for 12-16 hours until fully confluent. The cell monolayer was washed twice with 100 µL Hanks Balanced Salt Solution supplemented with 5 mM CaCl2 and 20 mM HEPES (sHBSS), then incubated for 2-4 hours with 100 µL working solution of Ca6 dye (Molecular Devices) supplemented with a desensitization blocker (GluK1, GluK2 0.25 mg/mL concanavalin A, Sigma; GluA1 100 µM cyclothiazide, Sigma). The time resolved fluorescence was recorded in a Flexstation 3 instrument (Molecular Devices). For each individual reading, the initial fluorescence of the well was measured for 20 seconds, after which the desired concentration of […]
response is measured as the peak change in fluorescence upon addition of agonist. The viability of the cells was confirmed by determination of the concentration-response curve to the L-glutamate agonist and a standard antagonist for each plate. Readings of antagonists used the […]
(§4) Fluorescence traces were performed in […]
triplicate on each plate and Ki values were determined on a plate-by-plate basis. Separate experiments (n) were performed on different passages of cells. […]

In assay [1] the target is T2, GluN1-4a/GluN2B NMDARs (Rattus norvegicus, UniProt Q00960).
T2 construct: expressed in transfected cells; host or cells: Xenopus laevis oocytes injected with cRNA
T2 sequence (Q00960 27-1482, other chains not shown): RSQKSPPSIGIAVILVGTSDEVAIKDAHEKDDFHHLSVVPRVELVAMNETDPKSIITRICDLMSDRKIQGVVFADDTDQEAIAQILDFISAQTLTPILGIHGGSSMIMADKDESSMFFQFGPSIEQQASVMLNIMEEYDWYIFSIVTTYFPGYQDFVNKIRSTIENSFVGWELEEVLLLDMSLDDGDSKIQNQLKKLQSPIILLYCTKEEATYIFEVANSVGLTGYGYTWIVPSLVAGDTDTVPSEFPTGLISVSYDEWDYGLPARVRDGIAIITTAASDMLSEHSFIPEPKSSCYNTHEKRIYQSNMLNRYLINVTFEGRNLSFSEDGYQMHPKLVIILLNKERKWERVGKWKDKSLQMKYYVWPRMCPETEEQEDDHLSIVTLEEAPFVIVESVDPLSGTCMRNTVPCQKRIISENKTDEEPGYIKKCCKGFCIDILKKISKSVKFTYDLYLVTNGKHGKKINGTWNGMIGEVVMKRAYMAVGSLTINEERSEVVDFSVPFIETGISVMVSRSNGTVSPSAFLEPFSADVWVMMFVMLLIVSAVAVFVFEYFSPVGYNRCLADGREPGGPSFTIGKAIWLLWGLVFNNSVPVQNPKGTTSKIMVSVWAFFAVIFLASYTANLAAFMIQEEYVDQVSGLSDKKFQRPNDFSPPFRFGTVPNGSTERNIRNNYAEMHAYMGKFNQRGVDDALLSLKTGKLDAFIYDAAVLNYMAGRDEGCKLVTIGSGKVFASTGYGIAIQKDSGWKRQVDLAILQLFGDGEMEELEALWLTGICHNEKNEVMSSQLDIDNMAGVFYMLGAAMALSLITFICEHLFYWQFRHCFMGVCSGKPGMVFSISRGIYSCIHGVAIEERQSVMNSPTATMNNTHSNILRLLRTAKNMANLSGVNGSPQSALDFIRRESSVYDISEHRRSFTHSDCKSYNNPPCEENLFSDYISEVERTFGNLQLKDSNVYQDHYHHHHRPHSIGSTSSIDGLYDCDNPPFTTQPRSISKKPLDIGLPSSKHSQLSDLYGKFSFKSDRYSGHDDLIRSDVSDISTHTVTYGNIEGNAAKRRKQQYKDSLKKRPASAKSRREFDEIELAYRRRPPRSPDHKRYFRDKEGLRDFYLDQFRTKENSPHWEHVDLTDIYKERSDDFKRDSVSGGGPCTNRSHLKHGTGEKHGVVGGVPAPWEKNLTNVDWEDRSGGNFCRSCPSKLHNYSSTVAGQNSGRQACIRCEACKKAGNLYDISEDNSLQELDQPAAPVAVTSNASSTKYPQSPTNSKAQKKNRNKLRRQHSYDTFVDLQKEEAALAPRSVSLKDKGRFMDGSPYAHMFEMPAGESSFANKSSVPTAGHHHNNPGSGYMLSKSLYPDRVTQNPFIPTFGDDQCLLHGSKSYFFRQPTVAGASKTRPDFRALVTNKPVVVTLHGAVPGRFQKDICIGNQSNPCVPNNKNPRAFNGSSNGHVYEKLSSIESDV
As to the kind of experiment: TEVC electrophysiology on Xenopus laevis oocytes expressing GluN1-4a/GluN2B. The note with it: for fold difference of Ki vs. 2D (GluN2B): Ki GluN2B relative to Ki GluN2D (WT).
From the text: as §1, §2

For assay [2], the target named is T3, GluN1-4a/GluN2B NMDARs (Rattus norvegicus, UniProt P35439+Q00960).
T3 construct: expressed in transfected cells; host or cells: Xenopus laevis oocytes injected with cRNA
T3 sequence (Q00960 27-1482, other chains not shown): as above
Described as above.
From the text: as §1, §2

Another assay concerns the target human GluK1 (Homo sapiens, UniProt P39086). As to the kind of experiment: Glutamate-stimulated Ca2+-influx fluorescence assay in HEK293 cells, GluK1. As for the experimental part: Supplementary Figure 5. Effect of antagonist compounds on GluK1.
Averaged dose-response curves (average ± standard error of the mean) for inhibition with a […]
glutamate-stimulated Ca2+-influx assay from 3 or 4 measurements (n). IC50, Ki, and Hill coefficient nH (mean ± standard error of the mean) calculated with the Cheng-Prusoff equation were determined per measurement and are as shown. […]
HEK293 cell lines stably expressing homomeric glutamate receptors (GluA1, GluK1 and GluK2) were obtained from Eli Lilly and grown in DMEM (ThermoFisher) supplemented with 10% v/v fetal bovine serum (Sigma), 2 mM Glutamax™ (Gibco), 100 U/mL penicillin, 100 µg streptomycin and 250 ng amphotericin B (Sigma) in 5% CO2 at 37 °C. […]
as §3
100k cells/well were seeded into a 96-well plate precoated with poly-L-lysine and incubated for 12-16 hours until fully confluent. […] The time resolved fluorescence was recorded in a Flexstation 3 instrument (Molecular Devices). For each individual reading, the initial fluorescence of the well was measured for 20 seconds, after which the desired concentration of […]
response is measured as the peak change in fluorescence upon addition of agonist. […] Readings of antagonists used the […]
as §4
triplicate on each plate and Ki values were determined on a plate-by-plate basis. […]

Where [3] appears, read: normalized response at 30 µM compound.
The mark [4] stands for this setting: normalized response at 100 µM compound.

T1 sequence (Q00961 20-1237, other chains not shown): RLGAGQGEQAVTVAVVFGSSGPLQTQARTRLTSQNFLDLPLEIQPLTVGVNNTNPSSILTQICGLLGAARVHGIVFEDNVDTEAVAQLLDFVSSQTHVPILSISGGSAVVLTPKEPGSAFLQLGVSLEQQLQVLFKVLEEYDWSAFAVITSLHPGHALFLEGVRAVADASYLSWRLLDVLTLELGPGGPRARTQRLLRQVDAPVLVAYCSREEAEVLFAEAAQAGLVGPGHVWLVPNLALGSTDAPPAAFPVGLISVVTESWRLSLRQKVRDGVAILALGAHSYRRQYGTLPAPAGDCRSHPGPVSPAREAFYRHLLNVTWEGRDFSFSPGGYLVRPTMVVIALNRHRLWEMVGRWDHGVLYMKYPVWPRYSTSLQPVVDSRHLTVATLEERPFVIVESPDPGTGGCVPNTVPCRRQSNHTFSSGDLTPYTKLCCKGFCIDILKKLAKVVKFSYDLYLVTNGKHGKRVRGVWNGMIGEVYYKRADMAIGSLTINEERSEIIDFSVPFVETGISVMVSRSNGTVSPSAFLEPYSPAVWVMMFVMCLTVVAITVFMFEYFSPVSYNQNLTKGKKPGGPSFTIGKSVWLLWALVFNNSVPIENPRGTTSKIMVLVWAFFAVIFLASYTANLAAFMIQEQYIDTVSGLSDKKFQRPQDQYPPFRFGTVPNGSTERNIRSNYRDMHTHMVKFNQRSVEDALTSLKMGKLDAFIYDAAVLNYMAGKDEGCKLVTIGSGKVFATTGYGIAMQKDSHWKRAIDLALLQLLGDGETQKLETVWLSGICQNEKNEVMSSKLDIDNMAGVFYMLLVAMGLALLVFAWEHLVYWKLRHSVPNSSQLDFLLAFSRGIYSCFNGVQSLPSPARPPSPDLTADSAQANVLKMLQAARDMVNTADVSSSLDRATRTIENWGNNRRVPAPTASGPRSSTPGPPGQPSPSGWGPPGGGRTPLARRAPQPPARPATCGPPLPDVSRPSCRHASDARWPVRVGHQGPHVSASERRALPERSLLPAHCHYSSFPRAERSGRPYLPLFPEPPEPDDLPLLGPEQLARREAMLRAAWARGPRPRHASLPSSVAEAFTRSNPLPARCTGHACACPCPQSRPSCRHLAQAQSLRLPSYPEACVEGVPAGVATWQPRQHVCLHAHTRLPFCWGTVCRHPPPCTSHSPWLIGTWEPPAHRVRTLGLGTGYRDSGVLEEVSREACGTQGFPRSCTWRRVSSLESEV

`O=C(O)CCc1ccc2c(ccc3cc(C(=O)N4CCN[C@@H](C(=O)O)[C@H]4C(=O)O)ccc32)c1` (relative stereo) [UBP791, (2S*,3R*)-1-(7-(2-carboxyethyl)phenanthrene-2-carbonyl)piperazine-2,3-dicarboxylic acid]: the Ki on GluN1-4a/GluN2C NMDARs (Cheng–Prusoff from IC50 and L-glutamate EC50) is 0.08 ± 0.01 µM; on GluN1-4a/GluN2C NMDARs (Cheng–Prusoff) it was 0.08 to 0.09 µM; on GluN1-4a/GluN2B NMDARs [2], 1.38 ± 0.36 µM; on human GluK1, around 100 µM. At GluA1, this molecule had an IC50 above 100 µM. For the same molecule, the “Mean Response” value at GluA1 (setting [3]) stood at 94.1%; at GluA1 (setting [4]), 86.0%. Besides, on GluN1-4a/GluN2B NMDARs [1], the “fold difference of Ki vs. 2D (GluN2B)” value is recorded as ~ 16 fold. Moreover, the “GluN2C/2D-selectivity over GluN2B” value on GluN1-4a/GluN2B NMDARs [1] (ratio of Ki values) stood at 16 fold.
In the case of `O=C(O)C=Cc1ccc2c(ccc3cc(C(=O)N4CCN[C@@H](C(=O)O)[C@H]4C(=O)O)ccc32)c1` (relative stereo) [UBP1700, (2S*,3R*)-1-(7-(2-carboxyvinyl)phenanthrene-2-carbonyl)piperazine-2,3-dicarboxylic acid], the Ki at GluN1-4a/GluN2C NMDARs (Cheng–Prusoff) was 0.007 to 0.009 µM and 0.009 µM; at GluN1-4a/GluN2B NMDARs [2], 0.35 ± 0.05 µM; on human GluK1 it was around 32 µM. Besides, the IC50 against GluA1 was above 100 µM. The “Mean Response” value at GluA1 (setting [3]) came to 105.1%; on GluA1 (setting [4]), 101.8%. In addition, at GluN1-4a/GluN2B NMDARs [1], the “fold difference of Ki vs. 2D (GluN2B)” value is ~ 52 fold and 52 fold. For the same molecule, on GluN1-4a/GluN2B NMDARs [1] (ratio of Ki values), the “selectivity for GluN2C over GluN2B” value worked out at 40 fold.
